ChEMBL document CHEMBL2429841, “Effect of incorporating a thiophene tail in the scaffold of acetazolamide on the inhibition of human carbonic anhydrase isoforms I, II, IX and XII” (Bioorg Med Chem Lett, 2013)

Molecular target: Carbonic anhydrase 9 (Homo sapiens, UniProt Q16790)
Assay: Inhibition of human carbonic anhydrase-9 by stopped flow CO2 hydrase assay

Ki [nM] | Structure (SMILES)
84 | NS(=O)(=O)c1ccc(NC(=O)Cc2ccccc2)cc1
19 | NS(=O)(=O)c1ccc(NC(=O)Cc2cccs2)cc1

Structure (SMILES) | Ki [nM]
CCC[C@H](C(=O)Nc1ccc(S(N)(=O)=O)cc1)C(C)(C)C | 96

Molecular target: Carbonic anhydrase 12 (Homo sapiens, UniProt O43570)
Sequence (O43570 whole entry): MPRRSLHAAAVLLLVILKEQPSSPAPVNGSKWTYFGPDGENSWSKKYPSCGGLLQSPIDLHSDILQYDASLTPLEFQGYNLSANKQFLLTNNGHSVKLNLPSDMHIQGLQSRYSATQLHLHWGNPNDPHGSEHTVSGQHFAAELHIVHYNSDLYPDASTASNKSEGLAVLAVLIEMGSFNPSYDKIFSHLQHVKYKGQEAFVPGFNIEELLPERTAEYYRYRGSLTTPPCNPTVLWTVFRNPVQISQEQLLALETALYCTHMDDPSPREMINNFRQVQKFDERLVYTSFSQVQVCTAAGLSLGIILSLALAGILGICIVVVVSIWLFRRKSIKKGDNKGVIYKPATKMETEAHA
Description: Inhibition of human carbonic anhydrase-12 by stopped flow CO2 hydrase assay

Ki [nM] | Structure (SMILES)
71 | NS(=O)(=O)c1ccc(NC(=O)Cc2ccccc2)cc1
21 | NS(=O)(=O)c1ccc(NC(=O)Cc2cccs2)cc1

Structure (SMILES) | Ki [nM]
CCC[C@H](C(=O)Nc1ccc(S(N)(=O)=O)cc1)C(C)(C)C | 78
